Columns and labels:
[1] = molecular target: T1, GCN2 (Homo sapiens, UniProt Q9P2K8); test: GCN2 enzyme assay (TR-FRET Lanthascreen, GFP-eIF2alpha phosphorylation); format: biochemical; conditions: 10 μM ATP, 80 nM GFP-eIF2a, 30 nM GCN2
How it was run: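 Phosphorylation of GFP-eIF2alpha (80 nM) by GCN2 run at room temperature with 10 μM ATP. After EDTA quench, product quantified by Lanthascreen TR-FRET (antibody–GFP complex, 340 nm excitation).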
Target sequence in this assay (Q9P2K8 whole entry, species assumed): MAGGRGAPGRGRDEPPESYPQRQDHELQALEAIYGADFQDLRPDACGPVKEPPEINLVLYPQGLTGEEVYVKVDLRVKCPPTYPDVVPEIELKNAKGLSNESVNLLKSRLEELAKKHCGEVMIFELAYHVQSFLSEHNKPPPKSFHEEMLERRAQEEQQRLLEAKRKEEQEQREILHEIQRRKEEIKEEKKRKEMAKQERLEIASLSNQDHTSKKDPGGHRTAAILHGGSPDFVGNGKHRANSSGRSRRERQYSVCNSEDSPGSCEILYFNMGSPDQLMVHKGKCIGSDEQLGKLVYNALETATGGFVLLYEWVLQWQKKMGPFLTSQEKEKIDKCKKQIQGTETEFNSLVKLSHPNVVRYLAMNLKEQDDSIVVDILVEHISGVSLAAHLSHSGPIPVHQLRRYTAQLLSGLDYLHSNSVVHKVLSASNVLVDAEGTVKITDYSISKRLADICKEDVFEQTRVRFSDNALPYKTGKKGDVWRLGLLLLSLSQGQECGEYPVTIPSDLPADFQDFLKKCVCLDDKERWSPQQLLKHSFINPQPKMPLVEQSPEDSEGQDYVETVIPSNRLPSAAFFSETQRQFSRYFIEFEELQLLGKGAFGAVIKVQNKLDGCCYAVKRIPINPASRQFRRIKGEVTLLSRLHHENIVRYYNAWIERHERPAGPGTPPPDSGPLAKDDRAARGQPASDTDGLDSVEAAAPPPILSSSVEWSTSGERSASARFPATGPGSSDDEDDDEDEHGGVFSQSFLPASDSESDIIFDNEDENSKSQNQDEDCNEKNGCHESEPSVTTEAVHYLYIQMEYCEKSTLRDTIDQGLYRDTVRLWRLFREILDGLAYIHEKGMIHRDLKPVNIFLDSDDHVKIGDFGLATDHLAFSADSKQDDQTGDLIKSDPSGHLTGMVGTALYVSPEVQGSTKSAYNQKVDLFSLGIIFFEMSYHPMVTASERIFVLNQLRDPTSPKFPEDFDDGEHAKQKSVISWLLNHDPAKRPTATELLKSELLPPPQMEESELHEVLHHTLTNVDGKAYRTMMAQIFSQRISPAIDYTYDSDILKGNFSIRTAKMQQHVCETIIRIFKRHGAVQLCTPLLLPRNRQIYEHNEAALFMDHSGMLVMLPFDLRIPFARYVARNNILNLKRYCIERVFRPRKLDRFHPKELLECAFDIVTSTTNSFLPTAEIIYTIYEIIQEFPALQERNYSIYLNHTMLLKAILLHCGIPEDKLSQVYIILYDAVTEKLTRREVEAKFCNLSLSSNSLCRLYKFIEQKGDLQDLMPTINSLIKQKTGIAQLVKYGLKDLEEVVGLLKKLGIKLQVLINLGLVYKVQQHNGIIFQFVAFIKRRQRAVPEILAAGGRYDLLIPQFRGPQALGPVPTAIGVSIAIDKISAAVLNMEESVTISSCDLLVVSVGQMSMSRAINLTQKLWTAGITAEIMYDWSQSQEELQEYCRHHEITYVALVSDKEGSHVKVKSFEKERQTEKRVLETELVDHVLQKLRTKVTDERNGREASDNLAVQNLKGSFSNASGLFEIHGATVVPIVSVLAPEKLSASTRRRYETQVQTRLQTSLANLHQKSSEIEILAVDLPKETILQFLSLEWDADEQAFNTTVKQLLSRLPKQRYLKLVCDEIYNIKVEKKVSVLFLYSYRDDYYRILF

[2] = molecular target: GSK3β(h) (Homo sapiens, UniProt P49841); test: GSK3β radiometric kinase assay (33P-ATP, phospho GS2 peptide); format: biochemical; conditions: read-out: IC50 GSK3β (enzyme assay)
Chain of GSK3β(h) (P49841 whole entry): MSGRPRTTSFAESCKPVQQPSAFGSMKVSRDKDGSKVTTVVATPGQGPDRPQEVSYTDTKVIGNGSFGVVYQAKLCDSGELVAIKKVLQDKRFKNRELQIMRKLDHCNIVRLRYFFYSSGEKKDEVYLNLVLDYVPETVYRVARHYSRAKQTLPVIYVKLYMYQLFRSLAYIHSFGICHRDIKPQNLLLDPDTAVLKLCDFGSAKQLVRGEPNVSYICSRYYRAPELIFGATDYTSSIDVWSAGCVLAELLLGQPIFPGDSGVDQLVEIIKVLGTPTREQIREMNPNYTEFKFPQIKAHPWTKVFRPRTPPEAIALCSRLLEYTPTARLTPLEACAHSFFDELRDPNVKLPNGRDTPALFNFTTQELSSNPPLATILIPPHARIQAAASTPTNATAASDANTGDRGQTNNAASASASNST
How it was run: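 Human GSK3β in 8 mM MOPS pH 7,0, 0,2 mM EDTA, 10 mM Mg-acetate with 20 μM phospho-GS2 peptide; the reaction was started with [γ-33P]MgATP at an unstated level. After 40 min at room temperature it was stopped with phosphoric acid, and the peptide was captured on P30 filtermat for scintillation counting.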

[3] = molecular target: T1, GCN2; test: Cellular assay of GCN2 activity (phospho-eIF2alpha immunocytochemistry after tryptophanol); format: cell-based; design: endogenous in cells; host or cells: U2OS; conditions: Human U2OS cells, 2 h compound, 600 μM tryptophanol 30 min
How it was run: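 Readout in human U2OS cells: compound pretreatment 2 h, then tryptophanol (600 μM final) for 30 min to trigger GCN2 signalling. Fixed, permeabilised cells quantified by immunocytochemistry for phosphorylation, normalised to DMSO controls as % effect; IC50 from concentration-response.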
Target sequence in this assay (Q9P2K8 whole entry): as the sequence (Q9P2K8 whole entry, species assumed) above

[4] = molecular target: GSK3α(h) (Homo sapiens, UniProt P49840); test: GSK3α radiometric kinase assay (33P-ATP, phospho GS2 peptide); format: biochemical; conditions: read-out: IC50 GSK3α (enzyme assay)
Chain of GSK3α(h) (P49840 whole entry): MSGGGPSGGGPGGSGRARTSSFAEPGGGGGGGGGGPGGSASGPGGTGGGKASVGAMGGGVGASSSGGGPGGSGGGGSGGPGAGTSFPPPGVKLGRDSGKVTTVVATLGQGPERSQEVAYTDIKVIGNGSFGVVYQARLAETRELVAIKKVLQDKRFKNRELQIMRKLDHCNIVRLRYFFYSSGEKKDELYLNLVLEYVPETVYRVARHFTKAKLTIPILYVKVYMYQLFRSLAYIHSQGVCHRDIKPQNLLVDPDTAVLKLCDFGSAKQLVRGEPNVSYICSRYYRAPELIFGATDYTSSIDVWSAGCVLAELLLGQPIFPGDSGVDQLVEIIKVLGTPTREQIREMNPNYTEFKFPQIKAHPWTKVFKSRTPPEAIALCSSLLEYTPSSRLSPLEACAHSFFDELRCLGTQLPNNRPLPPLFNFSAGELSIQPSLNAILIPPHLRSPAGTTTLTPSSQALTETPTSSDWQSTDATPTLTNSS
How it was run: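 Human GSK3α incubated with 20 μM phospho-GS2 peptide in 8 mM MOPS pH 7,0, 10 mM Mg-acetate and [γ-33P]ATP (concentration as required), started with MgATP. After 40 minutes at room temperature, stopped with phosphoric acid; 33P incorporation measured by filtermat spotting and scintillation counting.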

SMILES | IC50 [1] | IC50 [2] | IC50 [3] | IC50 [4]
COCCOc1ccc(-n2nnc3cnc(N[C@@H]4CC[C@@H](C#N)C4)nc32)cc1 [A274, (1R,3R)-3-{3-[4-(2-methoxy-ethoxy)-phenyl]-3H-[1,2,3]triazolo[4,5-d]pyrimidin-5-ylamino}-cyclopentanecarbonitrile] | < 1000 nM | < 1000 nM | 1000 to 5000 nM | < 1000 nM
CCOc1ccc(-n2nnc3cnc(N[C@@H]4CC[C@@H](C(N)=O)C4)nc32)cc1 [A150, (1R,3R)-3-[3-(4-ethoxy-phenyl)-3H-[1,2,3]triazolo[4,5-d]pyrimidin-5-ylamino]-cyclopentanecarboxylic acid amide] | < 1000 nM | < 1000 nM | 1000 to 5000 nM | < 1000 nM
Cc1ccc2cc(-n3nnc4cnc(N[C@@H]5CCC[C@@H](C(N)=O)C5)nc43)ccc2n1 (relative stereo) [A192, (trans)-3-[3-(2-methyl-quinolin-6-yl)-3H-[1,2,3]triazolo[4,5-d]pyrimidin-5-ylamino]-cyclohexanecarboxylic acid amide] | < 1000 nM | < 1000 nM | 5000 to 10000 nM | < 1000 nM
COCCn1cc(-c2ccc(-n3nnc4cnc(N[C@@H]5CC[C@@H](O)C5)nc43)cc2F)cn1 [A228, (1R,3R)-3-(3-{3-fluoro-4-[1-(2-methoxy-ethyl)-1H-pyrazol-4-yl]-phenyl}-3H-[1,2,3]triazolo[4,5-d]pyrimidin-5-ylamino)-cyclopentanol] | < 1000 nM | < 1000 nM | 5000 to 10000 nM | < 1000 nM
CCOc1ccc(-n2nnc3cnc(N[C@@H]4CC[C@@H](O)C4)nc32)cc1 (relative stereo) [A207, (trans)-3-[3-(4-ethoxy-phenyl)-3H-[1,2,3]triazolo[4,5-d]pyrimidin-5-ylamino]-cyclopentanol] | < 1000 nM | < 1000 nM | 1000 to 5000 nM | < 1000 nM
CCOCCOc1ccc2cc(-n3nnc4cnc(N[C@@H]5CC[C@@H](C(N)=O)C5)nc43)ccc2n1 [A182, (1R,3R)-3-{3-[2-(2-ethoxy-ethoxy)-quinolin-6-yl]-3H-[1,2,3]triazolo[4,5-d]-pyrimidin-5-ylamino}-cyclopentanecarboxylic acid amide] | < 1000 nM | < 1000 nM | 1000 to 5000 nM | < 1000 nM
CCOc1ccc(-n2nnc3cnc(N[C@@H]4CC[C@@H](C(N)=O)C4)nc32)cc1F [A157, (1R,3R)-3-[3-(4-ethoxy-3-fluoro-phenyl)-3H-[1,2,3]triazolo[4,5-d]pyrimidin-5-ylamino]-cyclopentanecarboxylic acid amide] | < 1000 nM | < 1000 nM | 1000 to 5000 nM | < 1000 nM
Cc1ccc2cc(-n3nnc4cnc(N[C@@H]5CC[C@@H](C(=O)NCCO)C5)nc43)ccc2n1 [A245, (1R,3R)-3-[3-(2-methyl-quinolin-6-yl)-3H-[1,2,3]triazolo[4,5-d]pyrimidin-5-ylamino]-cyclopentanecarboxylic acid (2-hydroxy-ethyl)-amide] | < 1000 nM | < 1000 nM | < 1000 nM | < 1000 nM
COCCn1cc(-c2ccc(-n3nnc4cnc(N[C@@H]5CC[C@@H](O)C5)nc43)cc2)cn1 [A212, (1R,3R)-3-(3-{4-[1-(2-methoxy-ethyl)-1H-pyrazol-4-yl]-phenyl}-3H-[1,2,3]triazolo[4,5-d]pyrimidin-5-ylamino)-cyclopentanol] | < 1000 nM | < 1000 nM | 1000 to 5000 nM | < 1000 nM
CCOc1ccc(-n2nnc3cnc(N[C@@H]4CC[C@@H](C(=O)NN)C4)nc32)cc1 [A282, (1R,3R)-3-[3-(4-ethoxy-phenyl)-3H-[1,2,3]triazolo[4,5-d]pyrimidin-5-ylamino]-cyclopentanecarboxylic acid hydrazide] | < 1000 nM | < 1000 nM | 1000 to 5000 nM | < 1000 nM
COCCn1cc(-c2ccc(-n3nnc4cnc(N[C@@H]5CC[C@@H](C(=O)NCC6CCN(C)CC6)C5)nc43)cc2)cn1 [A235, (1R,3R)-3-(3-{4-[1-(2-methoxy-ethyl)-1H-pyrazol-4-yl]-phenyl}-3H-[1,2,3]triazolo[4,5-d]pyrimidin-5-ylamino)-cyclopentanecarboxylic acid (1-methyl-piperidin-4-ylmethyl)-amide] | < 1000 nM | < 1000 nM | 1000 to 5000 nM | < 1000 nM
CCOc1ccc(-n2nnc3cnc(N[C@@H]4CC[C@@H](C(=O)NCCO)C4)nc32)cc1 [A247, (1R,3R)-3-[3-(4-ethoxy-phenyl)-3H-[1,2,3]triazolo[4,5-d]pyrimidin-5-ylamino]-cyclopentanecarboxylic acid (2-hydroxy-ethyl)-amide] | < 1000 nM | < 1000 nM | < 1000 nM | < 1000 nM
COCCn1cc(-c2ccc(-n3nnc4cnc(N[C@@H]5CC[C@@H](C(N)=O)C5)nc43)cc2C)cn1 [A230, (1R,3R)-3-(3-{4-[1-(2-methoxy-ethyl)-1H-pyrazol-4-yl]-3-methyl-phenyl}-3H-[1,2,3]triazolo[4,5-d]pyrimidin-5-ylamino)-cyclopentanecarboxylic acid amide] | < 1000 nM | < 1000 nM | 1000 to 5000 nM | < 1000 nM
CCOCCn1cc(-c2ccc(-n3nnc4cnc(N[C@@H]5CC[C@@H](C(=O)NCCOC)C5)nc43)cc2)cn1 [A225, (1R,3R)-3-(3-{4-[1-(2-ethoxy-ethyl)-1H-pyrazol-4-yl]-phenyl}-3H-[1,2,3]triazolo[4,5-d]pyrimidin-5-ylamino)-cyclopentanecarboxylic acid (2-methoxy-ethyl)-amide] | < 1000 nM | < 1000 nM | 1000 to 5000 nM | < 1000 nM
CCOc1ccc(-n2nnc3cnc(N[C@@H]4CC[C@@H](C(=O)NCCC(C)(C)O)C4)nc32)cc1 [A240, (1R,3R)-3-[3-(4-ethoxy-phenyl)-3H-[1,2,3]triazolo[4,5-d]pyrimidin-5-ylamino]-cyclopentanecarboxylic acid (3-hydroxy-3-methyl-butyl)-amide] | < 1000 nM | < 1000 nM | 5000 to 10000 nM | < 1000 nM
COCCn1cc(-c2ccc(-n3nnc4cnc(N[C@@H]5CC[C@@H](C(N)=O)C5)nc43)cc2)cn1 [A218, (1R,3R)-3-(3-{4-[1-(2-methoxy-ethyl)-1H-pyrazol-4-yl]-phenyl}-3H-[1,2,3]triazolo[4,5-d]pyrimidin-5-ylamino)-cyclopentanecarboxylic acid amide] | < 1000 nM | < 1000 nM | < 1000 nM | < 1000 nM
CCOc1ccc(-n2nnc3cnc(N[C@@H]4CC[C@@H](C(=O)NCCOC)C4)nc32)cc1 [A248, (1R,3R)-3-[3-(4-ethoxy-phenyl)-3H-[1,2,3]triazolo[4,5-d]pyrimidin-5-ylamino]-cyclopentanecarboxylic acid (2-methoxy-ethyl)-amide] | < 1000 nM | < 1000 nM | 1000 to 5000 nM | < 1000 nM
NC(=O)[C@@H]1CC[C@@H](Nc2ncc3nnn(-c4ccc(-c5cnn(CCO)c5)c(F)c4)c3n2)C1 [A260, (1R,3R)-3-(3-{3-fluoro-4-[1-(2-hydroxy-ethyl)-1H-pyrazol-4-yl]-phenyl}-3H-[1,2,3]triazolo[4,5-d]pyrimidin-5-ylamino)-cyclopentanecarboxylic acid amide] | < 1000 nM | < 1000 nM | 5000 to 10000 nM | < 1000 nM
